In patent US20230339835A1, “2,3,5-TRIMETHYL-6-NONYLCYCLOHEXA-2,5-DIENE-1,4-DIONE FOR SUPPRESSING AND TREATING ALPHA-SYNUCLEINOPATHIES, TAUOPATHIES, AND OTHER DISORDERS” (PTC THERAPEUTICS, INC., priority 2018, published 2023):

Test system: AD patient fibroblasts ND34730
Test: Rescue of AD patient fibroblasts from BSO plus iron-induced oxidative stress, ND34730
Assay type: cell-based
Conditions: Homo sapiens, Fibroblast
Experimental: An initial screen was performed to identify the effectiveness of compounds for the amelioration of PD and AD. Test samples and solvent controls were tested for their ability to rescue PD and AD fibroblasts stressed by addition of L-buthionine-(S,R)-sulfoximine (BSO, a specific inhibitor of GSH synthetase) plus iron (e.g. iron citrate), in a similar manner as that described in Jauslin et al., Hum. Mol. Genet. 11(24):3055 (2002), Jauslin et al., FASEB J. 17:1972-4 (2003), and International Patent Application WO 2004/003565. This specific BSO-mediated cell death was prevented or ameliorated by administration of compounds described herein.
The AD experiments were performed as follows. PD experiments were performed in a similar manner; certain specific conditions are noted below in Table 1A.
MEM (a medium enriched in amino acids and vitamins) and Medium 199 (M199) with Earle's Balanced Salts (EBS), without phenol red, were purchased from Invitrogen. Fetal Calf Serum was obtained from Corning. […]
100 microliters of Calcein AM (1 microM) in PBS+Ca+Mg was then added to each well. […] After that time fluorescence (excitation/emission wavelengths of 485 nm and 525 nm, respectively) was read on a Spectramax fluorescence reader. Data were analyzed using standard four-parameter curve fit algorithms (XLFit or Prism) to determine the EC50 concentration for each compound.

CCCCCCCCCC1=C(C)C(=O)C(C)=C(C)C1=O [Compound C9, 2,3,5-trimethyl-6-nonylcyclohexa-2,5-diene-1,4-dione] was tested, and the EC50 (Iron citrate (50 μM) + BSO (50 μM)) was 15 nM and the EC50 (Iron citrate (100 μM) + BSO (25 μM)) was 24 nM.
